# From article PMC12454493, “Insight on novel sulfamoylphenyl pyrazole derivatives as anticancer carbonic anhydrase inhibitors” (Molecular Diversity, 2024)
# Where “and” joins values, the source holds several entries; their conditions need not be identical. Equal values may be shown once.
# How the values were obtained:
# [1] = biological target: hCA XII (Homo sapiens, UniProt O43570); test: CA inhibitory activity, spectrophotometric p-NPA assay; type: biochemical; settings: p-NPA substrate, pH 7.5, 25 °C, triplicate; read-out: IC50 (µM) ± SD hCA XII
# Sequence of hCA XII (O43570 25-354): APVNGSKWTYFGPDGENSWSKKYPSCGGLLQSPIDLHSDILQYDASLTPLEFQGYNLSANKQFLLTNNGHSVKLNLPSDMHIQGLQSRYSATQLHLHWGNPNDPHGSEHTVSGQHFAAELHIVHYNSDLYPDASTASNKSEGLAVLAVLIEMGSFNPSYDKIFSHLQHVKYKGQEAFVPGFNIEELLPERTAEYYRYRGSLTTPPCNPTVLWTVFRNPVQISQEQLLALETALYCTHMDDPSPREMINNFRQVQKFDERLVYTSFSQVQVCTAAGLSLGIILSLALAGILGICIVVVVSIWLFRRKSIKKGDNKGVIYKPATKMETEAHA
# [2] = test system: OVCAR-5; test: NCI-60 one-dose SRB screen (Ovarian cancer); type: cell-based; settings: Homo sapiens, single dose 10 µM, 48 h, read-out: Growth inhibition percent (GI %)
# Method: (§1) The National Cancer Institute (NCI) Developmental Therapeutic Program (www.dtp.nci.nih.gov) selected the 20 novel synthesized compounds 4a-e, 5a-e, 6a-c, 9a-e, 10 and 11 to test for their anticancer activity at a single dose of 10 µM using SRB assay. […] Supplementary Data S3; Table S1 presents the detailed screening results of the most promising compounds. The preliminary screening’s detailed results for the remaining compounds are elucidated in the (Supplementary Data S3; Table S2).
# (§2) The guidelines of the Drug Evaluation Branch’s protocol at the NCI in Bethesda served as the basis for the in vitro anticancer screening assays. at one dose 10 µM against a panel of 60 cancer cell lines. The human tumor cell lines used belonged to nine panels: leukemia, melanoma, lung, colon, CNS, ovarian, renal, prostate and breast cancers using the sulforhodamine B (SRB) assay in a 48 h drug exposure protocol.
# [3] = test system: NCI/ADR-RES; test: NCI-60 one-dose SRB screen (Ovarian cancer); type: cell-based; settings: Homo sapiens, single dose 10 µM, 48 h, read-out: Growth inhibition percent (GI %)
# Method: as §1, §2
# [4] = test system: OVCAR-3; test: NCI-60 one-dose SRB screen (Ovarian cancer); type: cell-based; settings: Homo sapiens, single dose 10 µM, 48 h, read-out: Growth inhibition percent (GI %)
# Method: as §1, §2
# [5] = test system: SK-OV-3; test: NCI-60 one-dose SRB screen (Ovarian cancer); type: cell-based; settings: Homo sapiens, single dose 10 µM, 48 h, read-out: Growth inhibition percent (GI %)
# Method: as §1, §2
# [6] = test system: OVCAR-8; test: NCI-60 one-dose SRB screen (Ovarian cancer); type: cell-based; settings: Homo sapiens, single dose 10 µM, 48 h, read-out: Growth inhibition percent (GI %)
# Method: as §1, §2
# [7] = test system: OVCAR-4; test: NCI-60 one-dose SRB screen (Ovarian cancer); type: cell-based; settings: Homo sapiens, single dose 10 µM, 48 h, read-out: Growth inhibition percent (GI %)
# Method: as §1, §2
# [8] = test system: IGROV1; test: NCI-60 one-dose SRB screen (Ovarian cancer); type: cell-based; settings: Homo sapiens, IGROV-1, single dose 10 µM, 48 h, read-out: Growth inhibition percent (GI %)
# Method: as §1, §2
# [9] = test system: SK-MEL-2; test: NCI-60 one-dose SRB screen (Melanoma); type: cell-based; settings: Homo sapiens, single dose 10 µM, 48 h, read-out: Growth inhibition percent (GI %)
# Method: as §1, §2
# [10] = test system: MALME-3M; test: NCI-60 one-dose SRB screen (Melanoma); type: cell-based; settings: Homo sapiens, single dose 10 µM, 48 h, read-out: Growth inhibition percent (GI %)
# Method: as §1, §2
# [11] = test system: UACC-62; test: NCI-60 one-dose SRB screen (Melanoma); type: cell-based; settings: Homo sapiens, single dose 10 µM, 48 h, read-out: Growth inhibition percent (GI %)
# Method: as §1, §2
# [12] = test system: LOX IMVI; test: NCI-60 one-dose SRB screen (Melanoma); type: cell-based; settings: Homo sapiens, single dose 10 µM, 48 h, read-out: Growth inhibition percent (GI %)
# Method: as §1, §2
# [13] = test system: UACC-257; test: NCI-60 one-dose SRB screen (Melanoma); type: cell-based; settings: Homo sapiens, single dose 10 µM, 48 h, read-out: Growth inhibition percent (GI %)
# Method: as §1, §2
# [14] = test system: SK-MEL-5; test: NCI-60 one-dose SRB screen (Melanoma); type: cell-based; settings: Homo sapiens, single dose 10 µM, 48 h, read-out: Growth inhibition percent (GI %)
# Method: as §1, §2
# [15] = test system: M14; test: NCI-60 one-dose SRB screen (Melanoma); type: cell-based; settings: Homo sapiens, single dose 10 µM, 48 h, read-out: Growth inhibition percent (GI %)
# Method: as §1, §2
# [16] = test system: SK-MEL-28; test: NCI-60 one-dose SRB screen (Melanoma); type: cell-based; settings: Homo sapiens, single dose 10 µM, 48 h, read-out: Growth inhibition percent (GI %)
# Method: as §1, §2
# [17] = test system: MDA-MB-435; test: NCI-60 one-dose SRB screen (Melanoma); type: cell-based; settings: Homo sapiens, single dose 10 µM, 48 h, read-out: Growth inhibition percent (GI %)
# Method: as §1, §2
# [18] = test system: SF-268; test: NCI-60 one-dose SRB screen (CNS Cancer); type: cell-based; settings: Homo sapiens, single dose 10 µM, 48 h, read-out: Growth inhibition percent (GI %)
# Method: as §1, §2
# [19] = test system: SF-295; test: NCI-60 one-dose SRB screen (CNS Cancer); type: cell-based; settings: Homo sapiens, single dose 10 µM, 48 h, read-out: Growth inhibition percent (GI %)
# Method: as §1, §2
# [20] = test system: SNB-19; test: NCI-60 one-dose SRB screen (CNS Cancer); type: cell-based; settings: Homo sapiens, single dose 10 µM, 48 h, read-out: Growth inhibition percent (GI %)
# Method: as §1, §2
# [21] = test system: SF-539; test: NCI-60 one-dose SRB screen (CNS Cancer); type: cell-based; settings: Homo sapiens, single dose 10 µM, 48 h, read-out: Growth inhibition percent (GI %)
# Method: as §1, §2
# [22] = test system: SNB-75; test: NCI-60 one-dose SRB screen (CNS Cancer); type: cell-based; settings: Homo sapiens, single dose 10 µM, 48 h, read-out: Growth inhibition percent (GI %)
# Method: as §1, §2
# [23] = test system: U251; test: NCI-60 one-dose SRB screen (CNS Cancer); type: cell-based; settings: Homo sapiens, U-251, single dose 10 µM, 48 h, read-out: Growth inhibition percent (GI %)
# Method: as §1, §2
# [24] = test system: DU-145; test: NCI-60 one-dose SRB screen (Prostate Cancer); type: cell-based; settings: Homo sapiens, single dose 10 µM, 48 h, read-out: Growth inhibition percent (GI %)
# Method: as §1, §2
# [25] = test system: PC-3; test: NCI-60 one-dose SRB screen (Prostate Cancer); type: cell-based; settings: Homo sapiens, single dose 10 µM, 48 h, read-out: Growth inhibition percent (GI %)
# Method: as §1, §2
# [26] = test system: HOP-92; test: NCI-60 one-dose SRB screen (Non-Small Cell Lung Cancer); type: cell-based; settings: Homo sapiens, single dose 10 µM, 48 h, read-out: Growth inhibition percent (GI %)
# Method: as §1, §2
# [27] = test system: NCI-H226; test: as above; type: cell-based; settings: Homo sapiens, single dose 10 µM, 48 h, read-out: Growth inhibition percent (GI %)
# Method: as §1, §2
# [28] = test system: NCI-H23; test: as above; type: cell-based; settings: Homo sapiens, single dose 10 µM, 48 h, read-out: Growth inhibition percent (GI %)
# Method: as §1, §2
# [29] = test system: NCI-H460; test: as above; type: cell-based; settings: Homo sapiens, single dose 10 µM, 48 h, read-out: Growth inhibition percent (GI %)
# Method: as §1, §2
# [30] = test system: NCI-H322M; test: as above; type: cell-based; settings: Homo sapiens, single dose 10 µM, 48 h, read-out: Growth inhibition percent (GI %)
# Method: as §1, §2
smiles,measurement,setting,value
"CCOC(=O)c1ccc(NC(=O)COC(=O)c2cn(-c3ccc(S(N)(=O)=O)cc3)nc2-c2ccccc2)cc1 [Compound 5a, 2-[(4-(Ethoxycarbonyl)phenyl)amino]-2-oxoethyl 3-phenyl-1-(4-sulfamoylphenyl)-1H-pyrazole-4-carboxylate]",IC50,[1],0.39 µM and 0.395 µM
same,inhibition at 10 µM,[2],28.7%
same,inhibition at 10 µM,[3],16.6%
same,inhibition at 10 µM,[4],42.7%
same,inhibition at 10 µM,[5],5.67%
same,inhibition at 10 µM,[6],39.5%
same,inhibition at 10 µM,[7],46.6%
same,inhibition at 10 µM,[8],45.4%
same,inhibition at 10 µM,[9],50.8%
same,inhibition at 10 µM,[10],79.1%
same,inhibition at 10 µM,[11],55.2%
same,inhibition at 10 µM,[12],69.2%
same,inhibition at 10 µM,[13],48%
same,inhibition at 10 µM,[14],70.1%
same,inhibition at 10 µM,[15],63.5%
same,inhibition at 10 µM,[16],54.5%
same,inhibition at 10 µM,[17],45.1%
same,inhibition at 10 µM,[18],52.2%
same,inhibition at 10 µM,[19],60%
same,inhibition at 10 µM,[20],60.9%
same,inhibition at 10 µM,[21],46%
same,inhibition at 10 µM,[22],60.6%
same,inhibition at 10 µM,[23],58.5%
same,inhibition at 10 µM,[24],29.1%
same,inhibition at 10 µM,[25],68.1%
same,inhibition at 10 µM,[26],38.2%
same,inhibition at 10 µM,[27],54.7%
same,inhibition at 10 µM,[28],51.7%
same,inhibition at 10 µM,[29],63.5%
same,inhibition at 10 µM,[30],32.4%
